Test results: patent US10286032B2, “Pro-angiogenic fragments of prominin-1 and uses thereof” (Children's Medical Center Corporation, priority 2010, dated 2019)

Key:
[1] = test system: endothelial cells; experiment: I125-VEGF binding to endothelial cells in the presence of peptide; type: cell-based
Protocol: (§1) 10000 cells were incubated in binding buffer containing 20 mM Hepes, 0.1% BSA and I^125-VEGF (12 ng/ml) for 3 h on ice.
(§2) In order to characterize the effect of the peptides on VEGF binding to endothelial and melanoma cells, the cells were incubated with various peptides (720 μg/ml) in the presence of I^125-VEGF (12 ng/ml) (FIG. 2). Peptide #237 increased VEGF binding to endothelial as well to melanoma cells. 10000 cells were incubated in binding buffer containing 20 mM Hepes, 0.1% BSA and I^125-VEGF (12 ng/ml) for 3 h on ice. Following 3 washings, the radioactive levels were determined by gamma counter. An increase of more than 25 times in I^125-VEGF binding was observed when peptide #237 was added to both kinds of cells. The other prominin-1 peptides examined had no effect on VEGF binding to endothelial cells.
Each of these peptides were tested for VEGF binding to endothelial cells and compared to peptide #237 at varying dilutions. The results are indicated herein in FIG. 7.
The inventors also investigated which amino acid residues in peptide #237 are important for the various angiogenic and VEGF related binding activity described herein. To achieve this, the inventors singly changed each of the 12 amino acid residues in peptide #237 to alanine and performed experiments examining the effect of the alanine substitution at various positions on endothelial cell binding to VEGF. A total of 12 alanine substituted peptides were made and tested: Ala-1, Ala-2, Ala-3, Ala-4, Ala-5, Ala-6, Ala-7, Ala-8, Ala-9, Ala-10, Ala-11, Ala-12, (SEQ. ID. NOS. 38-41, 3, 11, 42-47) wherein the number indicate the position where the alanine substitution occurred. In addition, a “flip #237” peptide having the sequence AAVVTTTQRQVRD (SEQ. ID. NO. 22) was also made and studied.

[2] = test system: ear wound; experiment: ear punch wound healing model; type: in vivo, mouse; conditions: for wound closure versus control (peptide #237): intraperitoneal treatment, C57BL mouse
[3] = test system: endothelial cells; experiment: Matrigel assay of endothelial cell migration in vivo (FACS of matrigel liberated cells); set-up: species or system C57bl mice; conditions: day 6; for endothelial cells among matrigel liberated cells (FACS, CD31): Matrigel with 500 ng VEGF, with or without 180 μg #237
Protocol: On day 6, animals were sacrificed and fluorescence-activated cell sorting (FACS) analysis was used for determination of the matrigel liberated cells. In order to distinguish the endothelial cells from hematopoietic cells, the cells were incubated with two antibodies CD31-PE and CD45-APC which are specific to endothelial cells and hematopoietic cells respectively.

[4] = test system: B16-F10 melanoma cells; experiment: I125-VEGF binding to melanoma cells in the presence of peptide; type: cell-based; conditions: peptide 720 μg/ml, I125-VEGF 12 ng/ml, 3 h on ice
Protocol: as §1, §2

[5] = test system: ischemic hind limb blood flow; experiment: hind limb ischemia model, intraperitoneal administration (Example 12); type: in vivo, mouse; conditions: for limb perfusion: intraperitoneally immediately following femoral artery occlusion, within three to six days
Protocol: Mice were ligated in one of their femoral arteries (the […]) to simulate hind limb ischemia. The blood flow was analyzed by machine for each mouse before and immediately after the procedure to evaluate if the femoral was ligated properly. Blood flow was compared with the non-operated leg by a laser Doppler imager. […] The ischemic limb is seen as the limb on left side in the laser Doppler images.
Representative evaluation of the ischemic (left side of each image) and non-ischemic (right side of each image) hind limbs, immediately after, and on days 4 and 14 after surgery. In FIG. 11, the white areas indicate normal perfusion with normal blood circulation and black areas indicate no blood flow in the ischemic left hind limb. […] Dark shaded areas within the white areas located at the distal ends of the limbs indicate […].
The blood flow of the ischemic hind limb is expressed as the ratio between the perfusion of the ischemic limb and the uninjured limb in FIG. 12.

[6] = test system: ear wound neovascularization; experiment: ear wound neovascularization model; type: in vivo, nude mouse; conditions: matrigel containing 180 μg peptide daily for 5 days; 2.25 mm punch; versus plain matrigel
Protocol: Microvascular in-growth into damaged tissue is an essential component of the normal healing process. In fact, wound therapy is often aimed at promoting neovascularization. The model consists of wounding the dorsal aspect of the ear of a nude mouse. A circular punch was used to create a standardized wound on a nude mouse ear. Constant diameter of wound is given by the size of the punch (2.25 mm), and the ears were treated daily with plain matrigel (FIG. 6A) or matrigel containing peptide #237 (180 μg) (FIG. 6B) for 5 days. […] In order to evaluate the wound neovascularization, the mice were inoculated by dextran-FITC which specifically labeled the endothelial cells, immediately after anesthetizing them.

[7] = test system: ischemic hind limb blood flow; experiment: hind limb ischemia model, local injection or pump (Example 11); type: in vivo, mouse; conditions: after 48 h
Protocol: FIG. 10A are laser doppler images showing the effects of direct injection of either saline or peptide #237 to the ischemic site (800 μg) in a mouse hind limb ischemia model. Mice were ligated in both of their femoral arteries to simulate hind limb ischemia. The blood flow in mice was analyzed by machine for each mouse before and immediately after the procedure to evaluate if the femoral was ligated properly. (Note that amino acid 12 of SEQ. ID. NO: 1 is alanine; this amino acid was substituted with […] in the Ala-12 substitution variant.)
FIG. 10B are laser doppler images showing the effects of injection by pumps of either the saline or peptide #237 to the ischemic site (800 μg) in a mouse hind limb ischemia model. Just the left femoral artery was ligated to simulate hind limb ischemia. Mice from group B were treated systemically by pumps that were implanted to the mouse's back one day prior to the procedure. […] The blood flow was analyzed by machine for each mouse before and immediately after the procedure to evaluate if the femoral was ligated properly. […]
The angiogenic effects of peptide #237 were investigated using the mouse hind limb ischemia model. […] The blood flow was analyzed by Laser Doppler perfusion imagery machine for each mouse before and immediately after the procedure to evaluate if the femoral was ligated properly. […]

[8] = test system: cornea neovascularization; experiment: corneal micropocket assay with VEGF pellet; type: in vivo, mouse; conditions: pellet 160 ng VEGF 165 + 1.3 ug #237; 5 days
Protocol: Vigorous vessel in-growth from the limbus at 5 days was recorded as a positive response.
In order to evaluate the modulating effect of peptide #237 on the angiogenesis process, a corneal micropocket assay was performed. Two kinds of pellets were created, both containing 160 ng carrier-free recombinant human VEGF 165 (R&D Systems, Minneapolis, Minn.), one of which contains 1.3 ug of #237 peptide. The pellets were implanted into micropockets created in the cornea of two groups of anesthetized mice (n=4). Through the use of standardized slow-release pellets, a predictable angiogenic response is generated over the course of 5 days and then quantified. The area of neovascularization was calculated as vessel area, which is calculated as the product of vessel length measured from the limbus and clock hours around the cornea, using the following equation: vessel area (mm^2)=[clock hours×vessel length (mm)×0.2 mm]. […] The in vivo experiment confirms that the peptide stimulates cell proliferation, and is therefore a good candidate to induce angiogenesis.

DAVQRQTTTVVA [Ala-2]
VEGF binding to endothelial cells over control levels (absence of any peptide) [1]: promote VEGF binding to endothelial cells over control levels

DRAQRQTTTVVA [Ala-3]
VEGF binding to endothelial cells over control levels (absence of any peptide) [1]: promote VEGF binding to endothelial cells over control levels

DRVARQTTTVVA [Ala-4]
VEGF binding to endothelial cells over control levels (absence of any peptide) [1]: promote VEGF binding to endothelial cells over control levels

DRVQAQTTTVVA [Ala-5]
VEGF binding to endothelial cells over control levels (absence of any peptide) [1]: promote VEGF binding to endothelial cells over control levels | ability of endothelial cells to bind VEGF compared to original #237 ([1]; alanine substitution screen): more than twice

DRVQMQTTTVVA [#237-M]
VEGF binding to endothelial cells over control levels (absence of any peptide) [1]: promote VEGF binding to endothelial cells over control levels | wound closure versus control (peptide #237) [2]: significantly more wound closure

DRVQQQTTTVVA [#237-Q]
VEGF binding to endothelial cells over control levels (absence of any peptide) [1]: promote VEGF binding to endothelial cells over control levels | wound closure versus control (peptide #237) [2]: significantly more wound closure

DRVQRATTTVVA [Ala-6]
VEGF binding to endothelial cells over control levels (absence of any peptide) [1]: promote VEGF binding to endothelial cells over control levels

DRVQRQATTVVA [Ala-7]
VEGF binding to endothelial cells over control levels (absence of any peptide) [1]: promote VEGF binding to endothelial cells over control levels

DRVQRQTTTVVA (listed as Homo sapiens) [#237]
endothelial cells relative to VEGF alone ([3]; 180 ug #237 added to the VEGF): six times more | endothelial cells among matrigel liberated cells (FACS, CD31) [3]: 0.42% | increase in I125-VEGF binding [4]: more than 25 times | VEGF binding to endothelial cells over control levels (absence of any peptide) [1]: promote VEGF binding to endothelial cells over control levels | increase in I125-VEGF binding ([1]; endothelial cells, peptide 720 μg/ml, I125-VEGF 12 ng/ml, 3 h on ice): more than 25 times | blood flow recovery compared to saline treated mice (laser Doppler images) ([5]; days 4 and 14 after surgery): increased blood flow recovery | limb perfusion [5]: significantly improves limb perfusion | wound area versus untreated mice ([2]; MATRIGEL containing peptide daily for 14 days, day 14, 1 mm wound): significantly smaller | neovascularization around the ear wound site [6]: significantly increased the neovascularization | recovery of the blood flow in the ischemic site ([7]; local injection to the ischemic site (800 ug)): complete recovery of the blood flow | recovery of the blood flow in the ischemic site ([7]; slow release via pump 0.5 ug/hour): complete recovery of the blood flow | increase in vessel density versus pellet without peptide [8]: 53%

DRVQRQTTTVVG [Ala-12, glycine substitution at position 12, which is naturally alanine]
VEGF binding to endothelial cells over control levels (absence of any peptide) [1]: promote VEGF binding to endothelial cells over control levels

DRVQVQTTTVVA [#237-V]
VEGF binding to endothelial cells over control levels (absence of any peptide) [1]: promote VEGF binding to endothelial cells over control levels | limb perfusion [5]: significantly improves limb perfusion | wound closure versus control (peptide #237) [2]: significantly more wound closure

RVQRQTTTVVAG
VEGF binding to endothelial cells over control levels (absence of any peptide) [1]: promote VEGF binding to endothelial cells over control levels

VEGF
endothelial cells among matrigel liberated cells (FACS, CD31) [3]: 0.07%

VQRQTTTVVAGI
VEGF binding to endothelial cells over control levels (absence of any peptide) [1]: promote VEGF binding to endothelial cells over control levels
